{
  "source": "patent EP1222194B1",
  "about": "“7-ACYLAMINO-3-HETEROARYLTHIO-3-CEPHEM CARBOXYLIC ACID ANTIBIOTICS AND PRODRUGS THEREOF” (priority 1999, dated 2001)",
  "key": {"[1]": {"experiment": "Serum binding determination by ultrafiltration and HPLC", "type": "in vitro ADME", "conditions": "% of compound bound to serum as determined by HPLC; human serum", "description": "The more accurate measurement of binding of selected cephalosporin compounds was performed using HPLC as described below. […] Serum is placed in a shaking water bath preheated to 37 ± 2 °C for 5 to 10 minutes to heat serum to 37 °C. Serum pH is measured and recorded, while serum is 37 °C using pH paper. Measurements are taken twice, 3 minutes apart. […] After blowing for several minutes, serum is heated to 37 °C and measurements are taken twice, 3 minutes apart using pH paper to determine the pH. Store at 4 °C. The serum is stable for 7 days. Always check the pH before each use. • 2. Before any centrifugation, the centrifuge temperature must be adjusted to 25 ± 2 °C. Preheat the centrifuge by spinning for 45 minutes at the same speed to be used in the assay (1900 g) with two tubes of water in the rotor and the temperature set to 25 °C. When the centrifuge stops immediately check the temperature of the tubes of water with a calibrated thermometer. The temperature of the tubes of water must be 25 ± 2 °C. […] Continue spinning and measuring the temperature and adjusting the setting until the temperature is 25 ± 2 °C. • 3. Prepare blank ultrafiltrate by pipetting blank pH 7.4 serum into an Amicon Centrifree Micropartition devices, centrifuge: fixed angle rotor, 1900 g, 25 °C for 20 minutes. Heat ultrafiltrate in a shaking water bath preheated to 37 °C. Measure ultrafiltrate pH and adjust to the pH of the serum (7.4 ± 0.2). • 4. Pipette 190 ul of blank ultrafiltrate into a set of labeled 1.7 mL polypropylene microfuge tubes for 3 of each level. Pipette 10 µL of the appropriate standard stock 50, 200, 1000 µg/mL to make standards 2.5, 10, and 50 µg/mL respectively. Vortex each tube well. One set of the standard samples are mixed 1:1 with 0.2 M acetic acid and injected onto the HPLC (MSTD). These samples are the membrane standards and will be used to compare to the other standards. Pipette 190 ul of ultrafiltrate and spike with 10 ul of whatever solution (e.g. water) the standards are prepared in to make the zero standard. • 5. Pipette 475 µL of blank heated pH 7.4 serum into a set of labeled 1.7 mL polypropylene microfuge tubes for 2 of each (Serum A and Serum B). Pipette 25 µL of the 1000 µg/mL standard stock into each tube, vortex each tube well to make serum standard 50 µg/mL. Remove 100 µL of serum and deproteinate with 200 µL 4% TCA while vortexing to make serum time 0 (serum 50, T0). Place serum tubes in a shaking water bath at 37 °C for 10 minutes. Pipet 100 µL of serum out and deproteinate with 200 µL 4% TCA, to make serum time 10 min (serum 50, T10). Pipet 200 ul serum standard 50 µg/mL into an ultrafiltration device, which is not treated with TCA, to determine free drug in samples (Rat Serum 50). • 6. Transfer serum and standard samples to labeled Amicon Centrifree Micropartition filters, and centrifuge: 1900 g, 25 °C for 10 minutes. The extracted serum samples (T0 and T 10) are spun down and supernatant is loaded into HPLC vials. • 7. 100 µL of ultrafiltrate sample and 100 µL of 0.2 M acetic acid were mixed together to stabilize the compound in ultrafiltrate. • 8. Transfer entire stabilized ultrafiltrate solution to a labeled autoinjector HPLC vial cap with Teflon septa, and inject on HPLC.\nPeak height or area is used in a weighted linear regression.\nHigh levels of binding to human serum proteins limits the concentration of compound available for antibacterial activity in the body."}, "[2]": {"system": "S. aureus ATCC 13709 (Smith diffuse)", "experiment": "Murine model for lethal bacteremic peritonitis (septicemia)", "type": "in vivo, mice", "conditions": "for Efficacy in murine septicemia %survival: subcutaneously at 0 and 2 hrs post-challenge", "description": "10 mice/group were injected intraperitoneally with 2.98x10^7 cfu S. aureus ATCC 13709 (Smith diffuse) and treated at 0 and 2hrs post-challenge with serial two-fold doses of new cephalosporin antibiotic, imipenem and vancomycin subcutaneously in order to determine the ED50. Male Swiss-Webster mice weighing originally 24.2 - 26.1 g were obtained from Charles Rivers Labs, Hollister, CA. Mice were housed 10 per cage and given free access to water and mouse chow.\nStaphylococcus aureus ATCC 13709 (Smith diffuse) was grown overnight at 37 °C in Brain-heart Infusion broth (BHIB). The following morning, it was subcultured to fresh BHIB and incubated for 4-5h at 37 °C. The log-phase growth cells were washed once with physiological saline and adjusted to the desired concentration by correlation of absorbency at OD 600 nm with predetermined plate counts (NCCLS, 1994). The cell suspension was mixed with an equal volume of sterile 14% hog-gastric mucin (2). Inoculum was kept in an ice bath until used (<1h).\nMice were challenged via an injection of 0.5 mL bacterial suspension intraperitoneally. The bacterial challenge was 2.98 x 10^7 cfu/mouse.\nImipenem (Primaxin IV; Lot 7294A), vancomycin (Vancocin; Lot 8MU60W), and new cephalosporin antibiotic were prepared by serial two-fold dilutions to concentrations of 0.078 - 0.005 mg/mL, 1.2 - 0.075 mg/mL, 0.3 - 0.02 mg/mL, 0.3 - 0.02 mg/mL and 0.3 - 0.02 mg/mL respectively in sterile water (1). All antibiotics were administered subcutaneously in 0.1 mL volumes at 0 and 2 hours post-challenge. Concentrations of all compounds are based on the weight of the bioactive ingredients.\nThe 50% effective dose (ED50) was calculated by the probit method (3) utilizing a program entitled Probit (Nycomed-Salutar)."}},
  "data": [
    {"smiles": "CN[C@H](CC(C)C)C(=O)N[C@H]1C(=O)N[C@@H](CC(N)=O)C(=O)N[C@H]2C(=O)N[C@H]3C(=O)N[C@H](C(=O)N[C@H](C(=O)O)c4cc(O)cc(O)c4-c4cc3ccc4O)[C@H](O)c3ccc(c(Cl)c3)Oc3cc2cc(c3O[C@@H]2O[C@H](CO)[C@@H](O)[C@H](O)[C@H]2O[C@H]2C[C@](C)(N)[C@H](O)[C@H](C)O2)Oc2ccc(cc2Cl)[C@H]1O", "note": "[Van, Vancomycin]", "values": [
      {"measurement": "fraction unbound", "setting": "[1]", "value": 0.45},
      {"measurement": "Efficacy in murine septicemia %survival", "setting": "[2]; Dose 5 mg/kg", "value": "5/100%"},
      {"measurement": "Efficacy in murine septicemia %survival", "setting": "[2]; Dose 10 mg/kg", "value": "10/100%"},
      {"measurement": "ED50", "setting": "[2]; Staphylococcus aureus, ATCC13709, sc, read-out: Efficacy in murine septicemia ED50", "value": 2.41, "unit": "mg/kg"}
    ]}
  ]
}
